Source: ChEMBL document CHEMBL6153085, “Discovery of N-(1,2,4-Thiadiazol-5-yl)benzo[b]oxepine-4-carboxamide Derivatives as Novel Antiresistance Androgen Receptor Antagonists” (J Med Chem, 2025)

Legend:
Androgen receptor = target: T1, Androgen receptor (Homo sapiens, UniProt P10275); assay: Antagonist activity at Androgen receptor in human LNCaP cells expressing ARR2PB-eGFP incubated for 3 days by fluorescence based assay
T1 sequence (P10275 whole entry): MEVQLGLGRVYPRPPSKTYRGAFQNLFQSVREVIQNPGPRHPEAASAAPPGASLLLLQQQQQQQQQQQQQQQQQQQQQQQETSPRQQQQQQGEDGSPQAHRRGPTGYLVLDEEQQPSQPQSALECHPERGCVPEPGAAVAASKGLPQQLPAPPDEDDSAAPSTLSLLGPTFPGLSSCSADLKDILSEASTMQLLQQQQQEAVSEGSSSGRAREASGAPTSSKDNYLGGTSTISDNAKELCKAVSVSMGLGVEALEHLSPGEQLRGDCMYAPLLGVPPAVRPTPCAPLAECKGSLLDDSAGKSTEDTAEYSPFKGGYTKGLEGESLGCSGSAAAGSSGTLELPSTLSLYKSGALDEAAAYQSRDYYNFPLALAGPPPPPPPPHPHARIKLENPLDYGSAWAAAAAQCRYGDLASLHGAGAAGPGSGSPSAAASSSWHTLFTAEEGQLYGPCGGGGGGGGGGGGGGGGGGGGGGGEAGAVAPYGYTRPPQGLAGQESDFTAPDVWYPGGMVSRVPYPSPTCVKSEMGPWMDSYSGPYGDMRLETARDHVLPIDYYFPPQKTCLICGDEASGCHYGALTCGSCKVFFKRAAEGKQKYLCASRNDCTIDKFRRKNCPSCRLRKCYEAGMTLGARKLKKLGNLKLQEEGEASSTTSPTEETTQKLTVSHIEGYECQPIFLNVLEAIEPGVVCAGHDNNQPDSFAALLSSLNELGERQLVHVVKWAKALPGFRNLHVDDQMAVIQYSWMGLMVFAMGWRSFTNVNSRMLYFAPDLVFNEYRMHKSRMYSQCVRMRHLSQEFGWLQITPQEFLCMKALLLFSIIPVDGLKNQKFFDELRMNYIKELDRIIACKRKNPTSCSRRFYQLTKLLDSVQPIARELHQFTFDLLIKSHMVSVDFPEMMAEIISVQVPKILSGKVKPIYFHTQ

[1] = Antiproliferative activity against human LNCaP-EnzR cells assessed as inhibition of cell proliferation incubated for 3 days by MTT assay; details: 72 h
LNCaP = assay: Antiproliferative activity against human LNCaP cells assessed as inhibition of cell proliferation incubated for 3 days by MTT assay; details: 72 h
[2] = Antiproliferative activity against mouse 3T3 cells incubated for 3 days by MTT assay; details: NIH3T3 cells

Row | SMILES | IC50 (Androgen receptor) [µM] | IC50 [1] [µM] | IC50 (LNCaP) [µM] | IC50 at 3 days [2] [µM]
1 | CC(=O)Cc1nsc(NC(=O)/C=C/c2ccc(C(F)(F)F)cc2)n1 | 16 |  |  | 
2 | CNC(=O)c1ccc(N2C(=S)N(c3ccc(C#N)c(C(F)(F)F)c3)C(=O)C2(C)C)cc1F [ENZALUTAMIDE] |  | > 50 | 15.8 | > 50
